Source: patent US20240226066A1, “CARDIOPROTECTION BY AUTOPHAGY INDUCTION AND METABOLIC REPROGRAMMING” (UNIVERSITE PARIS-SACLAY, priority 2021, published 2024)

Assays:
DRP-1 = experiment: Western blot of DRP-1 phosphorylation (Ser616) in RNVCs; assay type: cell-based, rat
Description: FIG. 6D: Drp-1 and P-Drp-1 and MFN2 protein levels in RNVCs analyzed by western blotting. *, p<0.05, **, p<0.01, ***, p<0.001 with respect to DMSO. The experiments were reproduced 3 times. Representative western blotting images and quantification of three independent experiments are presented as mean±SEM with single-factor ANOVA, and multiple Sidak comparisons.
(§1) The H9C2 cells and RNVCs were detached in LB containing: 50 mM Tris, 150 mM NaCl, 1 mM EDTA, 0.5% deoxycholate, 1% Triton X 100, 0.1% SDS (pH 8.0). The cells were collected and placed on ice for 30 minutes. The cells were then centrifuged at 2000 g for 20 minutes at for 4° C. The supernatant was transferred to a new tube and stored on ice. The protein concentration was determined by BCA assay. The protein samples were diluted with sample buffer (2× Laemmli, Sigma), mixed, and heated for 5 minutes at 95° C. […] The images were recorded with a gel imaging system (Bio Rad). […]
(§2) Due to the importance of mitochondria and reactive oxygen species (ROS) levels in the fate of cardiomyocyte cells, the hypothesis that the compounds could impact the mitochondrial network was explored. […] Thus, the mitochondrial network and the individual mitochondria were then analyzed using the IMARIS software.

[1] = tested on: A549 lung cancer cell line; experiment: Influence of hits on growth of A549 cancer cells (total LDH after lysis); assay type: cell-based; settings: 48 h
Description: The cells were cultured for 6 h in the presence or absence of the hits, and then for 42 h. Finally, the cells were lysed with lysis buffer and the amount of LDH was measured to evaluate the total cell growth.
A colorimetric assay was used to measure lactate dehydrogenase (LDH), a cytosolic enzyme which is released during permeabilization of the plasma membrane (Promega G1780). The assay was performed using cell culture supernatants obtained from H9C2 or RNVC (rat neonatal ventricular myocyte) cells and lysis buffer (LB) was used as a positive control for total cell lysis. The LDH release was measured by absorbance reading at 490 nm (Infinite spectrofluorimeter, Tecan).
The effect of the compounds was then evaluated on primary rat neonatal ventricular cardiomyocytes (RNVCs) using the LDH test and propidium iodide staining. […] The absence of proliferative effects of the compounds was also evaluated on the A549 lung cancer cell line for 48 h (FIG. 2C).

RNVCs = experiment: Mitochondrial network and cell volume by confocal microscopy (Mitotracker, calcein-AM, IMARIS); assay type: cell-based, rat; settings: 1 and 10 μM, 6 h
Description: FIG. 6. Effects on mitochondrial dynamics by fluorescence microscopy The RNVCs were treated with 1 μM hits (FIG. 6A) and 10 μM hits (FIG. 6B) for 6 h and the mitochondrial network was stained with 200 nM of Mitotracker. The mitochondrial network and individual mitochondria were then analyzed using a Leica confocal microscope and IMARIS software. Data are presented as mean±SEM with single-factor ANOVA, and multiple Sidak comparisons. *, p<0.05, **, p<0.01, ***, p<0.001 with respect to DMSO.
FIG. 11: following the treatment of the RNVCs with the compounds as indicated, the cell volume was stained with 4 μM of calcein-AM. The cell volume was then analyzed using the IMARIS software.
Confocal microscopy. On day 0, 4×10^5 neonatal cardiomyocytes were plated overnight on laminin-coated 35 mm culture dishes (10 μg/ml). On day 1, the cells were treated with various compounds at 1 or 10 μM for 6 hours. The cells were incubated with Mitotracker Red 580 at 200 nM for 20 minutes at 37° C., then 4 μM of calcein (Calcein AM, Life Technologies, St Aubin, France) for 10 minutes at 37° C. The images were acquired with a Leica confocal microscope (SP5) (Mannheim, Germany). The mitochondrial network and the 3D model of cell volume were reconstructed using the IMARIS software (Bitplane Company, Zurich, Switzerland); therefore the cell volume, mitochondrial number and volume were analyzed.
Due to the importance of mitochondria and reactive oxygen species (ROS) levels in the fate of cardiomyocyte cells, the hypothesis that the compounds could impact the mitochondrial network was explored. Following treatment of the RNVCs with the compounds tested, the mitochondrial network was stained with 200 nM of Mitotracker and the cell volume with 4 μM of calcein-AM. Thus, the mitochondrial network and the individual mitochondria were then analyzed using the IMARIS software.

MFN1 = experiment: Western blot of MFN1 in RNVCs; assay type: cell-based, rat
Description: FIG. 6C: MFN1 and MFN2 protein levels in RNVCs analyzed by western blotting.
as §1, §2

| Structure (SMILES) | phosphorylation of DRP-1 at Ser616, (DRP1-P)/(DRP-1 total) ratio (DRP-1) | effect on A549 cell growth [1] | number of mitochondria (RNVCs) | total mitochondrial volume per cell (RNVCs) | expression of fusion protein MFN1 (MFN1) |
| --- | --- | --- | --- | --- | --- |
| O=C1NC(c2ccccc2)=N/C1=C\c1cc2ccccc2c2ccccc12 [SG6163F] | stimulated fission by phosphorylation of DRP-1 | no proliferative effect | increased | increased |  |
| C[C@]12CC[C@H](O)C[C@H]1CC[C@@H]1[C@@H]2CC[C@]2(C)[C@@H](C3=CC(=O)OC3)CC[C@]12O [digitoxigenin] |  | significantly reduced cell growth and induced cell death | increased | increased | decreased |
| C[C@H]1O[C@@H](O[C@H]2[C@@H](O)C[C@H](O[C@H]3[C@@H](O)CC(O[C@H]4CC[C@@]5(C)[C@H](CC[C@@H]6[C@@H]5C[C@@H](O)[C@]5(C)[C@@H](C7=CC(=O)OC7)CC[C@]65O)C4)O[C@@H]3C)O[C@@H]2C)C[C@H](O)[C@@H]1O (stereo partly shown) [digoxin] | stimulated fission by phosphorylation of DRP-1 | significantly reduced cell growth and induced cell death | increased | increased | decreased |
